Experimental data as given in PubChem BioAssay AID179 (DTP/NCI, 2004).
Several values for one entry are separate records, joined by “and”; a condition that tells them apart may be missing. Identical values can stand only once. Activity calls are given as the source filed them.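 How the source made its calls: active means compounds giving half or more protection of infected cells from virus-caused growth loss, again on retest; inactive means the rest.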 Where a SMILES comes first, the peptide text is derived from it.

System: CEM cells HIV-1 protection, formazan growth assay
Experiment: NCI AIDS Antiviral Assay
Details: for IC50: measured here: growth of uninfected CEM cells
Method in brief: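 Category rules: moderately active means at least 50% protection on retest, and confirmed active means 100% protection reproducibly. The underlying data came from a formazan growth assay in HIV-1-infected CEM cells.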

SMILES	outcome	EC50	IC50
O=C(NC1C=CCC2C(=O)N(c3ccccc3)C(=O)C12)OCc1ccccc1 (stereo not given)	inactive	–	–
CC(=O)c1cccc(NC(=O)C(=O)C(c2cnc3ccc([N+](=O)[O-])cc3n2)[N+](=O)[O-])c1 (stereo not given)	–	> 117 µM	> 117 µM
COC(=O)C1(CCCCl)CCCN1C(=O)OC(C)(C)C (stereo not given)	–	> 200 µM	> 200 µM
N#CC(C#N)=C1NC(=O)CC(=O)N1	inactive	–	–
N#Cc1ccc(/C=N\N2C(=O)c3ccccc3C2=O)cc1	–	> 26.3 µM	> 26.3 µM
COc1cc2c(cc1OC)C13CC[N+]4(C)CC5CCOC6CCN2C1C6C5CC34 (stereo not given)	–	> 479 µM	66.1 µM
Cc1nc2c(=O)[nH]c(=O)nc-2n(CCO)c1C	–	> 100 µM	40.7 µM
COc1ccc2c(c1)-c1c(c3ccccc3n1CCN1CCCCC1)CC2	–	> 100 µM	30.9 µM
COC(=O)C1CC(C=[N+](C)C)=C(SC)N1 (stereo not given)	–	> 200 µM	> 200 µM
CCOC(=O)c1cc2c(ccc3cc(C(=O)OCC)[nH]c32)[nH]1	–	> 200 µM	> 200 µM
Cn1cc2c(=O)n(OS(=O)(=O)c3ccccc3)c(=O)[nH]c2n1	–	> 200 µM	> 200 µM
CN(C)CC1COC2Cc3ccccc3C1O2 (stereo not given)	–	> 200 µM	> 200 µM
O=S(=O)(O)c1ccc(Nc2ccnc3ccccc23)cc1	–	> 200 µM	> 200 µM
CC1=NOC2(C1)C(=O)Nc1ccccc12 (stereo not given)	–	> 200 µM	141 µM
COC(=O)Cc1c([C@H]2[C@H](CC(=O)OC)c3ccccc3N2C(C)=O)[nH]c2ccccc12	–	> 200 µM	97.7 µM
Cc1ccc(S(=O)(=O)OC2C(O)C(O)OC2C(c2cc(O)c3c(c2O)C(=O)c2ccccc2C3=O)c2cc(O)c3c(c2O)C(=O)c2ccccc2C3=O)cc1 (stereo not given)	–	> 200 µM	14.5 µM
COc1cc2c(cc1O)C1Cc3cc(OC)c(OC)cc3C(C2)N1C (stereo not given)	–	> 39.8 µM	> 39.8 µM
Cc1cn(C2CC(N(O)Cc3ccccc3)C(CO)O2)c(=O)[nH]c1=O (stereo not given)	–	> 200 µM	> 200 µM
CCCCCCCCCCCCCCCCOCC(CN(C)CCN(C)C)OCCCCCCCCCCCCCCCC (stereo not given)	inactive	–	–
OCC(CN1CCCCC1)(CN1CCCCC1)CN1CCCCC1	–	> 50.1 µM	> 50.1 µM
O=Nc1ccc(Cl)cc1C(=O)c1ccccc1	–	> 200 µM	32.4 µM
CCOP(=O)(OCC)/C(C#N)=C/c1cccn1Cc1ccccc1	–	> 200 µM	25.1 µM

SMILES	outcome	EC50	IC50
O=C(C=Nc1ccccc1C(=O)O)c1ccco1	–	> 8.32 µM	> 8.32 µM
O=C(CC(C(=O)c1cccs1)c1ccsc1)c1ccco1 (stereo not given)	–	> 200 µM	32.4 µM
CC(=O)Oc1ccc2ccccc2c1Br	–	> 200 µM	112 µM
Brc1ccc(CCc2ncc[nH]2)cc1	–	> 282 µM	174 µM
C[C@H]1c2c(n(C3OC(CO)C(O)C3O)c(=O)[nH]c2=O)O[C@@H]1c1ccccc1 (stereo not given in full)	–	> 200 µM	> 200 µM
Cc1ccc(/C=C2\CCCC(C(NO)c3ccc(C)cc3)C2=NO)cc1 (stereo not given)	–	> 5.75 µM	> 5.75 µM
CC(C)c1ncc([N+](=O)[O-])n1C	–	> 200 µM	> 200 µM
COc1ccc(/C=C/C(=O)OCCc2ccccc2)cc1OC	–	> 25.1 µM	> 25.1 µM
Cc1cn([C@H]2C[C@@H]3[C@@H](COC(C(Cl)Cl)N3O)O2)c(=O)[nH]c1=O (stereo not given in full)	–	> 200 µM	> 200 µM
CN(C)c1ccc(C2N(C)CCN2C)cc1	–	> 200 µM	> 200 µM
O=C1CSc2cc([N+](=O)[O-])ccc2N1	–	> 123 µM	> 123 µM
C[N+]1(CCO)C2CCC1CC(O)C2 (stereo not given)	–	> 200 µM	> 200 µM
COc1cc(CNCc2cc(OC)c(OC)c(OC)c2)cc(OC)c1OC	–	> 200 µM	> 200 µM
O=[P+](O)c1ccsc1	inactive	–	–
O=[n+]1cnn([O-])c2ccccc21	–	> 200 µM	3.63 µM
CC1(C)OC2OC(C3COS(=O)O3)C(Cl)C2O1 (stereo not given)	–	> 871 µM	490 µM
C[S+](C)c1ccc(Cl)cc1	–	> 871 µM	69.2 µM
CCN(CC)C(=S)SS(=O)(=O)c1ccc(F)cc1	–	> 200 µM	18.6 µM
N#C/C(=C\c1ccccc1)c1ccc(F)cc1F	–	> 200 µM	37.2 µM
Cc1cc(=O)oc2cc(O/C(=C\c3ccccc3)c3nc4ccccc4c(=O)o3)ccc12	inactive	–	–
COc1ccc2ccc3[nH]c4c(C)cnc(NCCCN(C)C)c4c3c2c1	–	> 2 µM	0.331 µM
CCCCC1(C)C=C/C(=C2/C(=O)O/C(=C\C(=O)O)C2=O)O1 (stereo not given)	–	> 851 µM	> 851 µM

SMILES	outcome	EC50	IC50
CON(C)C(=O)C(Cc1ccccc1)NC(=O)OC(C)(C)C (stereo not given)	–	> 813 µM	155 µM
O=C(CN1CCCCC1)CC(O)(C(F)(F)F)C(F)(F)F	–	> 200 µM	66.1 µM
CC1=NN(c2ccccc2)C(=O)C1N=Nc1ccc(Br)cc1C (stereo not given)	–	> 17.4 µM	> 17.4 µM
CCCC1C(=O)Nc2cccc3ncn(c23)C1=O (stereo not given)	–	> 200 µM	186 µM
Cc1cc(N(CCC#N)CCC#N)ccc1/C=C/C(=O)Nc1ccccc1Cl	–	> 457 µM	> 457 µM
Cc1ccc(N=Nc2c(C)nn(-c3ccccc3)c2-c2ccccc2)c(Br)c1	inactive	–	–
N#C/C(=C\c1ccc(Cl)cc1)c1nc(-c2cc3ccccc3oc2=O)cs1	–	> 151 µM	> 151 µM
Cc1cc(Cl)ccc1NC(=O)C(=O)Cc1ccc([N+](=O)[O-])c([N+](=O)[O-])c1CC(=O)C(=O)Nc1ccc(Cl)cc1C	–	> 309 µM	129 µM
CC(NC(=O)CNC(=O)C(N)CO)C(=O)NC(CCC(=O)O)C(=O)NC(CCC(=O)O)C(=O)NC(CO)C(=O)NC(CCCCN)C(=O)NC(CCC(=O)O)C(=O)NC(CCC(N)=O)C(=O)NC(CO)C(=O)N1CCCC1C(=O)NC(CC(N)=O)C(=O)NC(C)C(=O)NC(Cc1cnc[nH]1)C(=O)NC(CO)C(=O)O (stereo not given) (H-SGAEESKEQSPNAHS-OH; configuration not given here)	–	> 100 µM	> 100 µM
Cc1c2ccccc2nc(CS(C)=O)[n+]1[O-] (stereo not given)	–	> 200 µM	> 200 µM
O=C(NCc1ccc(Cl)c(Cl)c1)c1nc2ccccc2nc1NCc1ccc(Cl)c(Cl)c1	–	> 126 µM	55 µM
CC(C)CCN=c1cc2n(-c3ccc(Cl)cc3)c3ccccc3nc-2cc1Nc1ccc(Cl)cc1	inactive	–	–
COC1[C@H](NC(=O)OC(C)(C)C)C(=O)N1Cc1ccccc1 (stereo not given in full)	inactive	–	–
CCOC(=O)/C=C(\N=P(c1ccccc1)(c1ccccc1)c1ccccc1)C(F)(F)C(F)(F)C(F)(F)C(F)(F)C(F)(F)F	–	> 200 µM	> 200 µM
CCCCCCCCCCCc1c2oc3ccccc3nc-2cc(Nc2ccccc2O)c1=O	–	> 2.95 µM	> 2.95 µM
O=C(CSSCC(=O)OCCS(=O)(=O)Nc1ccc(Br)cc1)OCCS(=O)(=O)Nc1ccc(Br)cc1	inactive	–	–
C=C(CCCC(C)OC(C)OCC)[Si](C)(C)C (stereo not given)	–	> 38.9 µM	> 38.9 µM
CC1CCc2c(c(CC3CC(=O)NC(=O)C3)nn2-c2ccccc2)C1 (stereo not given)	–	> 200 µM	> 200 µM
[C-]#[O+].[C-]#[O+].[C-]#[O+].[Cr].c1ccc(P(CC[PH+](CC[PH+](CC[PH+](c2ccccc2)c2ccccc2)c2ccccc2)c2ccccc2)c2ccccc2)cc1 (stereo not given)	–	> 4.68 µM	> 4.68 µM
COC(=O)C1Cc2cc3c(cc2C1=O)CCCC3 (stereo not given)	–	> 1000 µM	66.1 µM
Cc1ccc(S(=O)(=O)n2c3c(c4ccccc42)CCN2C[C@H]([C@H](C)Br)CC[C@@H]32)cc1	–	> 200 µM	42.7 µM
CCOC(=O)c1cn(-c2ccccc2)c(=S)n2c1nc1ccccc12	–	> 200 µM	7.59 µM

SMILES	outcome	EC50	IC50
COc1ccc(O)c2c1C(=O)CCCC2=O	inactive	–	–
O=c1oc2ccccc2c2nc3ccc(Cl)cc3cc12	–	> 200 µM	5.13 µM
CS(=O)(=O)c1ccc(N=C/C=C/Nc2ccc(S(C)(=O)=O)cc2)cc1	–	> 200 µM	> 200 µM
Cc1cc(=O)oc2cc(SC(=O)N(C)C)ccc12	–	> 200 µM	> 200 µM
O=C(NC(CSSCC(NC(=O)c1cnc2ccccc2n1)C(=O)O)C(=O)O)c1cnc2ccccc2n1 (stereo not given)	–	> 200 µM	> 200 µM
CC(=O)NNc1nc(C)c(C(/C=C/c2ccc3c(c2)OCO3)=N/NC(=O)c2ccncc2)s1	–	> 50.1 µM	> 50.1 µM
NCCc1nc2ccccc2[nH]1	–	> 200 µM	> 200 µM
Cc1ccc2nc(N/N=C/c3ccc(C)s3)cc(C)c2c1	–	> 200 µM	14.5 µM
NNC(=O)CC(=O)Nc1ccccc1F	–	> 1170 µM	871 µM
COC(=O)/C=C(\C(=O)OC)C1C(=O)Oc2c(C)c(=O)c3ccccc3n21 (stereo not given)	–	> 200 µM	60.3 µM
COc1ccc(-c2c3nc(c(-c4ccc(OC)cc4)c4[n-]c(c(-c5ccc(OC)cc5)c5nc(c(-c6ccc(OC)cc6)c6[n-]c2c2ccccc62)-c2ccccc2-5)c2ccccc42)-c2ccccc2-3)cc1.[Zn+2]	–	> 50.1 µM	> 50.1 µM
Cc1ccc(C(=O)c2ccccc2)c(C(=O)O)c1	–	> 200 µM	> 200 µM
COc1ccccc1NC(=S)Nc1cccc(C)n1	–	16.6 µM	61.7 µM
CCCCCCCCCCCCCCCCNC(=S)N/C=C(/C#N)C(=O)OC	inactive	–	–
COC(=O)C1(Cc2ccccc2)Cc2ccc3c(c2C1=O)CCC3 (stereo not given)	–	> 200 µM	> 200 µM
CCCCCC=C(c1cc(Cl)c(OC)c(C(=O)O)c1)c1cc(Cl)c(OC)c(C(=O)O)c1	–	129 µM and > 126 µM	155 µM and 83.2 µM
COc1ccc2c(c1)nc1n2C(N)=Nc2ccccc2S1	–	> 200 µM	11.5 µM
Fc1ccc(-c2sc(-c3ccsc3)cc2Cc2ccsc2)cc1	inactive	–	–
COC1(CC[C@H](C)COC2OC(CO)C(O)C(O)C2O)O[C@H]2C[C@H]3[C@@H]4CC=C5C[C@@H](OC6OC(CO)C(OC7OC(C)C(O)C(O)C7O)C(O)C6OC6OC(C)C(O)C(O)C6O)CC[C@]5(C)[C@H]4CC[C@]3(C)[C@H]2[C@@H]1C (stereo not given in full)	–	> 200 µM	1.58 µM
CN(C)/C=N/n1c2ccccc2c2ccccc21	–	> 200 µM	110 µM
